Patent US20030050247A1, “Chemically-modified peptides, compositions, and methods of production and use” (priority 2000, published 2003)
Values after ≈ are worked out from the molar mass of the structure shown. Like-named read-outs stand apart in the source and are kept apart here. The star is where a group is joined. Octanoyl = CCCCCCCC(=O)*

Assays:
[1] = test system: Salmonella typhimurium and Clostridium botulinum; assay type: cell-based; conditions: food preservative; Example 16
[2] = test system: K. pneumoniae and P. aeruginosa; experiment: Antimicrobial assay (MIC, growth inhibited by >90%), Examples 2 and 3; conditions: for efficacy (in words): Example 3, second octyl group, compared to the -NH2 peptides, Trp replaced
[3] = test system: E. coli; experiment: Antimicrobial activity of peptide-containing fiber (textiles); conditions: Example 17
[4] = in vitro; conditions: Vero cells (ATCC CCL81), non-infected
[5] = test system: C. acidivorans; experiment: Antimicrobial assay, bacterial paper mill isolates; assay type: cell-based, Comamonas acidivorans; conditions: paper mill isolate; TGE medium; 30° C.
[6] = test system: Bacillus; experiment: Antimicrobial assay, bacterial cooling tower isolates; assay type: cell-based; conditions: cooling tower isolate; TGE; 18 hr at 35° C.
[7] = test system: E. cloacae; experiment: Antimicrobial assay, bacterial paper mill isolates; assay type: cell-based, Enterobacter cloacae; conditions: paper mill isolate; TGE medium; 30° C.
[8] = test system: Desulfovibrio desulfuricans (ATCC 7757)
[9] = test system: X. maltophila; experiment: Antimicrobial assay, bacterial paper mill isolates; assay type: cell-based, Xanthomonas maltophila; conditions: paper mill isolate; TGE medium; 37° C.
[10] = test system: Aeromonas; conditions: 18 h
[11] = test system: P. aeruginosa; experiment: Antimicrobial assay, bacterial paper mill isolates; assay type: cell-based, Pseudomonas aeruginosa; conditions: paper mill isolate; TGE medium; 30° C.
[12] = test system: Aspergillus niger (ATCC 16888); conditions: 22 h at 30° C.

Compound: Octanoyl-Arg-Phe-NH-octyl
- MIC [1]: ≦ 8 μg/ml
- efficacy (in words) [2]: enhanced efficacy

Compound: Octanoyl-Arg-Ala-NH-octyl
- MIC [1]: ≦ 15 μg/ml

Compound: Decanoyl-Arg-NH-decyl
- MIC [3]: ≦ 15 μg/ml

Compound: Octanoyl-Arg-Tyr-NH-octyl
- efficacy (in words) [2]: enhanced efficacy

Compound: Nonanoyl-Arg-Arg-NH-nonyl
- MIC [3]: ≦ 2 μg/ml

Compound: CCCCCCCCNC(=O)[C@H](CCCNC(=N)N)NC(=O)[C@H](CCCNC(=N)N)NC(=O)CCCCCCC [Octanoyl-Arg-Arg-NH-octyl]
- viability at 125 ppm [4]: 59%

Compound: Octanoyl-Arg-Arg-Arg-NH-octyl
- MIC [3]: ≦ 8 μg/ml

Compound: Octanoyl-Arg-Cys-NH-octyl
- MIC [1]: ≦ 15 μg/ml

Compound: CCCCCCCCNC(=O)[C@H](CCCNC(=N)N)NC(=O)CCCCCCC [Octanoyl-R-NH-octyl, Octanoyl-Arg-NH-octyl]
- MIC [5]: >313 µg/mL
- MIC [6]: 15.6 µg/mL (≈ 37.9 µM)
- MIC [7]: >313 µg/mL
- MIC [8]: 62.5 to 125 µg/mL
- MIC [9]: ≦5 μg/ml
- MIC [10]: 62.5 µg/mL (≈ 152 µM)
- MIC [11]: ≦10 μg/ml

Compound: CCCCCCCCCNC(=O)[C@H](CCCNC(=N)N)NC(=O)CCCCCCCC [Nonanoyl-Arg-NH-nonyl]
- MIC [1]: ≦ 4 μg/ml
- Growth was inhibited ([12]; 1 μg/ml of peptide): 43%
- Growth was inhibited ([12]; 7.8 μg/ml): 83%
- Growth was inhibited ([12]; concentrations as low as 15.6 μg/ml): 98%

Compound: Octanoyl-Lys-Arg-NH-octyl
- MIC [1]: ≦ 4 μg/ml

Compound: Octanoyl-Arg-Trp-NH2
- MIC [3]: ≦ 15 μg/ml
- MIC [1]: ≦ 15 μg/ml
- peptide efficacy (MIC values, in words) ([2]; Example 2, acyl chain length and amino acid composition): greatest activity

Compound: Octanoyl-Arg-Phe-Phe-Arg-NH-octyl (RFFR; HELM PEPTIDE1{[CCCCCCCC(=O)[*:2]].R.F.F.R.[CCCCCCCCN[*:1]]}$$$$V2.0; SMILES CCCCCCCCNC(=O)[C@H](CCCNC(=N)N)NC(=O)[C@H](Cc1ccccc1)NC(=O)[C@H](Cc1ccccc1)NC(=O)[C@H](CCCNC(=N)N)NC(=O)CCCCCCC)
- MIC [3]: ≦ 4 μg/ml

Compound: Octanoyl-Arg-Trp-Phe-NH2
- MIC [3]: ≦ 15 μg/ml
- MIC [1]: ≦ 15 μg/ml
